Like-named read-outs stand apart in the source and are kept apart here.

Data set [1] deals with P4 G4 (P4-WT RNA). As to the kind of experiment: CD spectra and CD melting of P4-WT with G4-specific ligands. In kind it is binding, SARS-CoV-2. On the procedure:
For CD spectra and CD melting experiments, the DNA or RNA oligonucleotide samples pre-heated at 95 °C for 10 min were slowly cooled to room temperature, and then were incubated at 4 °C for 24 h. The samples were detected by JASCO J-810 spectropolarimeter equipped with a temperature-controlled water bath. In CD melting experiments, versus temperatures were collected at a heating rate of 1 °C/min.

For data set [2], the system named is P4 G4. Put plainly: In vitro translation (IVT) assays. In kind it is biochemical, SARS-CoV-2.
The test system of data set [3] is P4 G4. In kind it is cell-based, SARS-CoV-2. As to conditions: 10 μM TMPyP4 or 2.5 μM PDP.
Data set [4] relates to Vero E6 cells. As to conditions: African green monkey.
The subject of data set [5] is RNA with P4 G4. Put plainly: Cell-based RNA replication assays with SARS-CoV-2 RdRp (nsp12, nsp7, nsp8) in HEK293T cells, qRT-PCR. As to conditions: compared with P4-Mut, dose-dependent. From the text:
Cell-based RNA replication assay system was applied[43]–[45]. The plasmids nsp12, nsp7 and nsp8 were used to express codon-optimized Flag-nsp12, Flag-nsp7 and Flag-nsp8, respectively, all of which contain a Flag tag at the C-terminus. To generate the SARS-CoV-2 transcripts with P4 G4 site for RNA replication assays, 5’ untranslated region (UTR)-P4 G4 -3’ UTR was first synthesized, then inserted into the pGEM-T esay vector. And the SARS-CoV-2 RNA with P4 G4 site was produced using T7 RNA polymerases from a standard in vitro transcription kit.
HEK293T cells were transfected with the RNA with P4 G4 site, nsp12, nsp7, and nsp8 plasmids at the ratio of 1:10:30:30. At 12 h post transfection, cells were re-seeded in 24-well plates (4 × 10^4/well) and treated with PDP or TMPyP4. After 48 h incubation, cells were collected and measured for RNA levels by qRT-PCR assays.

Data set [6] is described as follows: in vitro. As to conditions: African green monkey.
For data set [7], the system named is SARS-CoV-2. Put plainly: microbe, parasite or virus in culture. As to conditions: for EC50: read-out: EC50 (half-maximal effective doses), antiviral; for EC90: read-out: EC90 (90% maximal effective doses), antiviral; for protein levels of nucleoprotein, Vero E6 cells: western blotting. In kind it is cell-based.
Data set [8] concerns P4 G4. As to the kind of experiment: Protein expression from pCAG-Flag vector with P4-WT or P4-Mut in HeLa and HEK293T cells (western blotting). In kind it is cell-based, SARS-CoV-2. As to conditions: concentration-dependent.
The subject of data set [9] is SARS-CoV-2. In kind it is cell-based, SARS-CoV-2 (BetaCoV/Beijing/IME-BJ05-2020). As to conditions: for protein levels of nucleoprotein, Calu-3 cells: western blotting.
For data set [10] the following is noted: cited from earlier work.
The subject of data set [11] is P6 G4. In kind it is cell-based, SARS-CoV-2. As to conditions: 10 μM, HEK293T cells.
The subject of data set [12] is P3 G4. In kind it is cell-based, SARS-CoV-2. As to conditions: 10 μM, HEK293T cells.
For data set [13] the following is noted: hamster plasma, 30 mg/kg i.n., single dose.
The test system of data set [14] is SARS-CoV-2. As to conditions: mouse, in vivo.
Data set [15] has as its system SARS-CoV-2. As to the kind of experiment: In vivo antiviral studies in SARS-CoV-2-infected Syrian hamsters.
Method: The in vivo antiviral studies were carried out in an ABSL3 facility in Changchun
Veterinary Research Institute, Chinese Academy of Agricultural Sciences. All animal
studies were performed in strict accordance with the guidelines set by the Chinese
Regulations of Laboratory Animals and Laboratory Animal-Requirements of
Environment and Housing Facilities. All animals used in this study were chosen
antiviral in SARS-CoV-2 infection. First, we use a model of Syrian hamsters; and
second, we used a model of human angiotensin-converting enzyme 2 (hACE2)-KI/IOZ
10) or saline (n = 5) 1 h prior to infection. Then the hamsters were anesthetized and
infected intranasally with 105 TCID50 of SARS-CoV-2. For the low challenge dose
For the high challenge dose
The conditions of hamsters
including body weight were monitored daily until sacrifice. 3 days post infection (dpi),
the hamsters were humanely euthanized. The nasal wash, nasal tissues and lung tissues
were harvested for viral titration and pathological examination. Briefly, the nasal
tissues and lung tissues were weighed, and 1 gram of each tissue was placed into 1
mL of PBS containing 100 U/mL penicillin, making 10% weight/volume
homogenates. The tissue samples were homogenized by Tissue Lyser (QIAGEN,
Germany) and centrifuged at 8,000 rpm. The supernatants were then collected and
inoculated into Vero E6 cells, and viral RNA copy numbers and viral titration were
determined by qRT-PCR and TCID50, respectively. Meanwhile, the lungs were fixed
in formalin, and the fixed tissues were embedded in paraffin and stained with H&E
for pathological examination.
therapeutic treatment in vivo, the hamsters were pre-infected with the virus (105
intraperitoneal, i.p., 15 mg/kg)) 1 h prior to infection. Then the hamsters were
anesthetized and infected intranasally with 105 TCID50 of SARS-CoV-2. The conditions
of hamsters including body weight were monitored daily until sacrifice. 3 dpi, the
hamsters were humanely euthanized. The nasal wash, nasal tissues and lung tissues
were harvested for viral titration and pathological examination.
Lung histological analysis
Lung histological analysis was examined by an experienced pathologist. H&E stained
sections of lung from hamsters and mice were examined by implementing a semi
quantitative, 5 point grading scheme (0-within normal limits, 1-mild, 2-moderate,
For data set [16] the following is noted: 30 mg/kg i.n. once daily for 7 consecutive days.
Data set [17] relates to Vero E6 cells. As to the kind of experiment: Cell viability, SRB assays. As to conditions: Vero E6 cells, SRB assays.
Data set [18] has as its system P13 G4. Put plainly: RNA replication assay, RNA with P13 G4 in HEK293T cells. In kind it is cell-based, SARS-CoV-2.
Data set [19] has as its system P2 G4. In kind it is cell-based, SARS-CoV-2. As to conditions: 10 μM, HEK293T cells.
Data set [20] concerns P14 G4. As to the kind of experiment: RNA replication assay, RNA with P14 G4 in HEK293T cells. In kind it is cell-based, SARS-CoV-2.
The subject of data set [21] is P1. In kind it is cell-based, SARS-CoV-2. As to conditions: 10 μM, HEK293T cells.
Data set [22] is described as follows: Cell viability, SRB assays. As to conditions: African green monkey.
[23] abbreviates: Severe acute respiratory syndrome coronavirus 2, Vero C1008, Vero E6 cells, 10^3 TCID50 virus/mL, 72 h post infection, viral RNA copies/mL.
The mark [24] stands for this setting: dose-dependent, 72 h post infection.
Where [25] appears, read: hamster, 15 mg/kg i.p., day 3 after infection.

For the compound `NCCOc1cc(C(=O)Nc2cc(OCCN3CCCC3)c3ccccc3n2)nc(C(=O)Nc2cc(OCCN3CCCC3)c3ccccc3n2)c1` [PDP], the “effect on the thermal stability of P4 G4” value in [1] was “significantly enhanced the thermal stability”. Moreover, the “IVT of P4-WT” value in data set [2] (P4-WT) is recorded as “inhibited the IVT of P4-WT”. For the same compound, in data set [3], the “P4-WT EGFP fluorescence intensity” value is “inhibited the P4-WT EGFP fluorescence intensity” and the “P4-Mut EGFP fluorescence intensity” value was “not P4-Mut”. The “CC10 (10% cytotoxic concentration)” value in data set [4] is 2.84 µM. For the same compound, the “replication of P4-WT RNA” value in data set [5] was “significantly inhibit the replication of P4-WT”. The same compound yielded a CC50 in data set [6] of 4.9 µM. For the same compound, the “SI (selectivity index)” value in data set [7] was found to be 7.78. Besides, in data set [7] (setting [23]), the EC50 was determined as 0.63 µM and the EC90 was above 2 µM. The “viral RNA copies and viral titers in Vero E6 cells” value (from here on “viral RNA copies and viral titers”) in data set [7] (setting [24]) is “significantly reduced viral RNA copies and viral titers”. In data set [8], the “protein levels of P4-WT” value was “decreased the protein levels of P4-WT”.
Turning to `C[n+]1ccccc1-c1c2nc(c(-c3cccc[n+]3C)c3ccc([nH]3)c(-c3cccc[n+]3C)c3ccc([nH]3)c(-c3cccc[n+]3C)c3nc1C=C3)C=C2` [TMPyP2], the “protein levels of nucleoprotein, Calu-3 cells” value in data set [9] (100 μM) is listed as “not TMPyP2”. In addition, the “effect on the thermal stability of P4 G4” value in [1] is “no effects on the thermal stability”. In addition, the “P4-WT EGFP fluorescence intensity” value in [3] is “no effects”. Further, in [5], the “replication of P4-WT RNA” value is on record as “no effects”. Further, the “protein levels of nucleoprotein, Vero E6 cells” value in data set [7] (100 μM) is “not TMPyP2”. Besides, the “protein levels of P4-WT” value in data set [8] is recorded as “no effects”.
Take `C[n+]1ccc(-c2c3nc(c(-c4cc[n+](C)cc4)c4ccc([nH]4)c(-c4cc[n+](C)cc4)c4nc(c(-c5cc[n+](C)cc5)c5ccc2[nH]5)C=C4)C=C3)cc1` [TMPyP4, 5,10,15,20-tetrakis-(N-methyl-4-pyridyl)porphine]: in [9] (100 μM), the “protein levels of nucleoprotein, Calu-3 cells” value is given as “significantly suppress the protein levels of nucleoprotein”. In [9] (Calu-3 cells, 100 μM, qRT-PCR), the “mRNA expression of pro-inflammatory cytokines and chemokines” value was “decrease the mRNA expression of pro-inflammatory cytokines and chemokines”. Besides, the “virus infection in Calu-3 cells” value in data set [9] (human lung epithelial Calu-3 cells) was “inhibited virus infection efficiently”. Also, in data set [10], the “toxicity in the animals for short-term treatment” value was “no noticeable toxicity”. The “EGFP expression, P6-EGFP” value in [11] is “inhibited EGFP expression”. The “effect on the thermal stability of P4 G4” value in data set [1] was “significantly enhanced the thermal stability”. Besides, in data set [12], the “EGFP expression, P3-EGFP” value is reported as “inhibited EGFP expression”. Also, in data set [13], the Cmax was 17880 ng/mL, the “area under the curve (AUC)” value is given as 167.32 h⋅μg/mL and the “half-life (T1/2)” value came to 6.36 h. Further, in data set [14], the “viral loads in the nasal turbinate and lung tissues” value is “significantly decreased the viral loads in the nasal turbinate and lung tissues”. Also, the “antiviral synergy with remdesivir in hamsters” value in [15] (TMPyP4 15 mg/kg i.n. combined with remdesivir 15 mg/kg i.p.) was “did not exhibit antiviral synergy with remdesivir in hamsters”. Also, in data set [15] (hamster, in vivo), the “decrease of mean viral loads (viral RNA copies/mL and TCID50/mL) in nasal wash, nasal turbinate and lung tissues” value was 2–4 log10; the “lung damage (histopathology)” value was “significantly ameliorate lung damage”; the “mRNA expression of inflammatory-associated genes in the lungs” value is listed as “reduced mRNA expression of inflammatory-associated genes in the lungs”. For the same compound, in [15] (hamster, in vivo, 15 mg/kg), the “maximal viral RNA copies reduction in the nasal wash, nasal turbinate and lung tissues” value is given as ~ 3 log10; the “viral titers reduction in the nasal wash, nasal turbinate and lung tissues” value is ~ 3.5 log10. In data set [15] (hamster, in vivo, 30 mg/kg), the “lung damage, therapeutic treatment” value was “could ameliorate lung damage”; the “viral loads in nasal wash, nasal turbinate and lung tissues, therapeutic treatment” value is listed as “significantly decreased the viral loads”. For the same compound, the “IVT of P4-WT” value in data set [2] is “inhibited the IVT of P4-WT”. Moreover, in data set [16], the toxicity in hamsters entry is listed as “no noticeable toxicity in the hamsters” and the “toxicity in the lung tissues of hamsters” value was “no noticeable toxicity in the lung tissues of hamsters”. Besides, in data set [3], the “P4-WT EGFP fluorescence intensity” value is “inhibited the P4-WT EGFP fluorescence intensity” and the “P4-Mut EGFP fluorescence intensity” value was “not P4-Mut”. The “replication of P4-WT RNA” value in data set [5] is given as “significantly inhibit the replication of P4-WT”. Also, the “CC10 (10% cytotoxic concentration)” value in data set [17] amounted to 727.7 µM. Also, the CC50 in data set [17] (read-out: CC50 (half-cytotoxic concentration)) was above 1000 µM. The “RNA replication, RNA with P13 G4” value in data set [18] is reported as “suppressed RNA replication”. Further, in data set [7], the “SI (selectivity index)” value was above 112.74, the “antiviral activity of TMPyP4 after pre-transfection of ASOs targeting viral G4s” value is listed as “significantly inhibited by ASO targeting viral G4s”, the “maximal viral RNA copies reduction in the Vero E6 cell culture supernatant” value is ~ 7 log10 and the “maximal viral RNA copies reduction in the Vero E6 cell lysate” value is given as ~ 6 log10. For the same compound, in [7], the “maximal viral titers reduction in the culture supernatant of Vero E6 cell” value was ~ 6 log10; the “viral RNA copies and viral titers” value is “significantly reduced viral RNA copies and viral titers”; the “viral loads in Vero E6 cells pre-infected with SARS-CoV-2” value is listed as “significantly decreased the viral loads”; the concentration giving a half-maximal response (EC50) amounted to 8.87 µM. For the same compound, in data set [7], the EC90 was found to be 13.2 µM. The “protein levels of nucleoprotein, Vero E6 cells” value in data set [7] (100 μM) is listed as “significantly suppress the protein levels of nucleoprotein”. Also, the “time-of-addition: stage of action” value in [7] (Vero E6 cells, 100 μM) is listed as “functioned at a stage post SARS-CoV-2 entry”. Also, in data set [7] (combination of TMPyP4 and remdesivir), the “antiviral synergy with remdesivir in vitro” value is “did not exhibit antiviral synergy”. For the same compound, the “EGFP expression, P2-EGFP” value in data set [19] was “inhibited EGFP expression”. In addition, the “protein levels of P4-WT” value in data set [8] is recorded as “decreased the protein levels of P4-WT”. Also, the “RNA replication, RNA with P14 G4” value in [20] is recorded as “suppressed RNA replication”. In addition, the “EGFP expression, P1-EGFP” value in data set [21] is recorded as “not P1”.
In the case of `CCC(CC)COC(=O)[C@H](C)N[P@](=O)(OC[C@H]1O[C@@](C#N)(c2ccc3c(N)ncnn23)[C@H](O)[C@@H]1O)Oc1ccccc1` [remdesivir], in data set [15] (setting [25]), the “maximal viral RNA copies reduction in the nasal wash, nasal turbinate and lung tissues” value was 1 log10; the “viral titers reduction in the nasal wash, nasal turbinate and lung tissues” value is on record as ~ 1.5 log10. In data set [22], this compound registered a CC50 above 100 µM. Moreover, the “CC10 (10% cytotoxic concentration)” value in [17] was 1.04 µM. Besides, the “maximal viral titers reduction in the culture supernatant of Vero E6 cell” value in [7] (72 h post infection, TCID50) is ~ 3 log10. In data set [7] (72 h post infection, qRT-PCR), the “maximal viral RNA copies reduction in the Vero E6 cell culture supernatant” value is ~ 4 log10 and the “maximal viral RNA copies reduction in the Vero E6 cell lysate” value is recorded as 3 log10. Also, in [7] (setting [23]), the EC50 was determined as 1.33 µM and the EC90 came to 2.42 µM. The “SI (selectivity index)” value in data set [7] (Vero E6 cells, CC50/EC50) was above 75.19. Further, the “viral RNA copies and viral titers” value in data set [7] (setting [24]) was “significantly reduced viral RNA copies and viral titers”.
